Assay results published in patent publication US20220062262A1, “GSNO REDUCTASE INHIBITOR AS AN ADJUNCT THERAPY WITH REMOTE ISCHEMIC CONDITIONING AND THROMBOLYTIC REPERFUSION THERAPIES IN STROKE” (KING ABDULAZIZ UNIVERSITY, priority 2020, published 2022).

Test system: PT-stroke (thrombotic occlusion of distal MCA trunk)
Assay: Photothrombotic (PT) model of stroke in aged mice, infarct volume by TTC staining
Type: in vivo
Experimental: Aged mice (16 ±1-mo) were subjected to PT-stroke via a novel lateral side surgical approach without craniotomy resulting in the thrombotic occlusion of distal main trunk of MCA. For the purpose, mice were anesthetized with isofluorane, prepared for surgery, and rose Bengal dye (50 mg/kgbwt in 200 uL of 1× sterile PBS) was intravenously (IV) infused. Mice were immediately put on a robotic stereotaxic frame, the head was rotated to face right side up, and the skull was exposed. The distal trunk of MCA was visualized underneath the skull bone (without craniotomy) using a 532 nm laser source (8-mm beam diameter; 4.5 mW) integrated to an ID8-iris (ThorLabs, NJ, USA). The MCA region above the zygomatic arc was exposed with the laser for 20-min from a distance of ˜2-3-mm. Following 20-min laser exposure, thrombotic occlusion of the distal trunk of MCA was confirmed using laser doppler flowmeter showing >60% drop in CBF and finally the lateral side skin wound was closed. All mice under C57/B6 background were bred, housed, used and related experimental procedures were performed in accordance with the approved protocol of Institutional Animal Care and Use Committees (IACUCs) of St. Joseph's Hospital and Medical Center (SJHMC), and Augusta University, Augusta, Ga. Effect of stroke on GSNOR expression/activity was first determined in a clinically relevant partially-humanized TE-stroke, embolic middle cerebral artery occlusion (eMCAo) model in aged (16±1-mo-old) male mice. Next, an effective dose-finding study of GRI therapy (stroke injury size) was performed in aged (16±1-mo-old) male mice in a photothrombotic (PT) model of stroke with the reduction in infarct volume as the primary outcome. The safety and benefits of the best dose of GRI therapy in reducing infarct volume as the primary outcome was also confirmed in reproductively senescent aged (16±1-mo-old) female mice subjected to PT-stroke. To test the benefits of GRI therapy during permanent ischemia, GRI was also tested in adult (14±1-weeks) mice of both sexes subjected to permanent model of middle cerebral artery ligation (pMCAL). All females were ovariectomized at the age of 12-weeks, i.e., 2-weeks prior to stroke surgery. A 2×2 factorial design was adopted [2 Sexes (MALE vs. FEMALE)×2 GRI (NO vs. YES)] such that all 4 groups of both sexes were subjected to pMCAL followed by randomization into two different treatment cohorts: GRI therapy or equal volume of Vehicle treatment. All mice were tested for behavioral outcome on a narrow beam test, relative CBF measurement using laser speckle contrast imaging (LSCI) and infarct volume size. […] Outcome measures such as brain tissue oxygenation (PbtO2), acute inflammatory genes response, neurological deficit, edema as percent (%) swelling and infarct volumes were assessed. […]

Cc1cc(C(N)=O)ccc1-n1c(CCC(=O)O)ccc1-c1ccc(-n2ccnc2)cc1 [GRI therapy, N6022] was tested, and the “stroke injury (infarct volume) vs vehicle” value (aged female mice, 2.5 mg/kg, P<0.05, N=10/gp) was “effective in reducing the stroke injury significantly”, the “neuroprotective effect (absolute infarct volume) across doses” value (aged male mice, 1, 2.5, 5.0 and 10 mg/kg IV 1 h after PT-stroke, N=8/gp) was “dose-dependent neuroprotective effect” and the “GRI dose from which the neuroprotective effect plateaus” value (aged male mice, IV 1 h after PT-stroke) was > 2.5 mg/kg. The “infarct/injury progression vs vehicle (TTC)” value (aged male mice, IV 1 h after PT-stroke, P<0.0001) was “significantly protected against the stroke and prevented the infarct/injury progression”.
